These are literature values, as cited in patent US10485783B1, “Methods and compositions for reducing or eliminating symptoms of withdrawal from drugs and alcohol” (Longevity Healthcare Center, priority 2018, dated 2019).

Data set [1] concerns GABAA and GABAB receptors. To be noted: synergistic with a GABAA receptor agonist, blocked by a GABAB receptor agonist.
Data set [2] relates to rats self-administering morphine. To be noted: morphine 2 hours per day on 10 consecutive days, then ascorbic acid intraperitoneally.
For data set [3] the following is noted: in vitro.

Take `CNC1(c2ccccc2Cl)CCCCC1=O` (stereo not shown) [Ketamine]: the anti-depressive activity entry in data set [1] is “anti-depressive activity”.

Regarding `O=C1O[C@H]([C@@H](O)CO)C(O)=C1O` [ascorbic acid], in data set [1], the anti-depressive activity result is listed as “anti-depressive activity”. Further, the “level of morphine self-administration (number of lever pressings) and number and intensity of withdrawal symptoms” value in data set [2] is listed as “decrease”. Moreover, the “concentration at which ascorbic acid generates free radicals (pro-oxidant)” value in data set [3] was 3 to 5 mM.
